From patent US20170056367A1, “PHARMACEUTICAL COMPOSITIONS FOR INHIBITING THE OSTEOCLAST DIFFERENTIATION COMPRISING EUPATILIN” (OsteoNeuroGen CO., LTD, priority 2015, published 2017)

Assays:
[1] = system: LPS-induced osteoporosis mouse models; assay: LPS-induced osteoporosis model; type: in vivo
[2] = system: Osteoblasts differentiated from mesenchymal stem cells; assay: ALP activity of osteoblasts differentiated from mesenchymal stem cells; type: cell-based, mouse; settings: FIG. 9
Description: Osteoblasts differentiated from mesenchymal stem cells were measured for ALP activity in the presence of eupatilin.

[3] = system: TRAP, OSCAR, Integrin av, DC-STAMP, integrin b3, and OC-STAMP; assay: Osteoclast differentiation marker gene levels by real-time PCR; type: cell-based, mouse; settings: 50 μM eupatilin, MBMC differentiation, FIG. 2
Description: During the differentiation of MBMC into osteoclasts in the presence of 50 μM eupatilin, the levels of osteoclast differentiation marker genes were measured by real-time PCR.

[4] = system: GSK3b; assay: Osteoclast formation upon overexpression of GSK3b; type: cell-based; settings: FIGS. 4A and 4B
[5] = system: mouse bone marrow cells (MBMC); assay: Cytotoxicity of eupatilin (FIG. 1D); type: cell-based; settings: at the concentration (50 μM)
[6] = system: IkB, Akt, and GSK3b; assay: Phosphorylation of IkB, Akt and GSK3b during differentiation of MBMC into osteoclasts (gel electrophoresis); type: cell-based, mouse; settings: compared to control groups, FIG. 3A
[7] = system: osteoclasts; assay: RANKL-mediated bone resorption measured using dentin; type: cell-based
Description: Effects of eupatilin on RANKL-mediated bone-resorption were measured using dentin.

[8] = system: human peripheral blood mononucleated cells (PBMC); assay: Differentiation of human PBMC into osteoclasts; type: cell-based; settings: 50 μM, FIG. 5
Description: Effects of eupatilin on the differentiation of human PBMC into osteoclasts were observed.

[9] = system: Ovariectomized mice (OVX); assay: Ovariectomized mice (OVX) model of menopausal osteoporosis; type: in vivo, mouse; settings: 50 μM eupatilin, FIG. 8
[10] = system: mouse bone marrow cells (MBMC); assay: Differentiation of mouse bone marrow cells (MBMC) into osteoclasts with M-CSF and RANKL; type: cell-based
Description: Incubation with M-CSF (macrophage-colony stimulating factor) and RANK (receptor activator of NFκB) ligand (RANKL) induced mouse bone marrow cells (MBMC) to differentiate into osteoclasts during which eupatilin was used at various concentrations under monitoring.

[11] = system: RANK-mediated NF-kB activation; assay: NF-kB-luciferase assay; type: cell-based; settings: FIG. 3D
Description: Retroviral overexpression of catalytically active IKKb or Akt induced partial formation of TRP^+ osteoclasts (FIGS. 3B and 3C). An NF-kB-luciferase assay was conducted to examine whether the RANK-mediated NF-kB activation was modulated by eupatilin.

RANK-mediated NF-kB activation [11]: inhibit
SMILES: COc1ccc(-c2cc(=O)c3c(O)c(OC)c(O)cc3o2)cc1OC [eupatilin, 5,7-dihydroxy-3,4,6-trimethoxyflavone]
LPS-induced osteoporosis (bone density by CT) ([1]; 50 μM eupatilin, LPS intraperitoneally, FIG. 7A): significantly reduced
H&E and TRAP staining ([1]; LPS model, bottom panel of FIG. 7): promote osteanagenesis and inhibit osteoclast differentiation
bone density ([1]; LPS or LPS+ eupatilin, FIGS. 7B to 7E): improve bone density
reduction of the activity of osteoblasts (ALP activity) ([2]; 50 μM): 50%
activity of osteoblasts (ALP activity) ([2]; up to 25 μM): did not influence
levels of the markers TRAP, OSCAR, Integrin av, DC-STAMP, integrin b3, and OC-STAMP [3]: significantly reduced
MNCs in the presence of eupatilin upon overexpression of GSK3b [4]: a significant quantity of MNCs was observed
cytotoxicity [5]: no cytotoxicity
phosphorylation levels of IkB, Akt, and GSK3b [6]: significantly reduced
expression of Pit ([7]; dentin, FIG. 6B): reduced
expression of F-actin for the formation of osteoclast actin rings ([7]; osteoclasts differentiated by RANK signaling, FIG. 6A): remarkably suppressed
expression of Cathepsin K ([7]; time-dependent manner, FIG. 6): significantly decreasing
expression of c-Fos, NFATc1, p-Akt, p-GSK3b, and p-IkB [8]: significantly reduce
formation of TRP^+ osteoclasts [8]: significantly reduce
bone density loss (CT) [9]: significantly reduced
osteoclast differentiation ([10]; 50 μM eupatilin, M-CSF and RANKL, FIG. 1A): completely suppressed
F-actin formation in MNCs (immunofluorescence) ([10]; FIG. 1C): significantly reduced
formation of TRP^+ multinucleated osteoclasts (MNCs) ([10]; various concentrations, FIG. 1B): suppressed the formation of TRP^+ multinucleated osteoclasts (MNCs) in a dose-dependent manner
